Measured values as given in patent US7468186B2, “Polyomavirus cellular epitopes and uses therefor” (priority 2005, dated 2008).
Where “and” joins values, the source holds several entries; their conditions need not be identical. Identical values can stand only once. Ends that are not written are not given here.

What was measured:
[1] = system: splenocytes (CD8+ T cells); type: cell-based, HHD-II transgenic mice
[2] = system: CD8+ T lymphocytes of PBMC; test: In vitro stimulation of human PBMC with peptide and rIL-2, then tetramer reagent labeling and flow analysis
[3] = system: Jurkat A2.1 cells pulsed with peptide
HLA-A*02 = biological target: T1, HLA-A*02 (Homo sapiens, UniProt P04439, D140Y/D185E/D98H/E176V/E277Q/G131W/G231S/I119V/I121R/I166T/I218V/L300P/L318F/N151K/N90K/P208A/P217A/Q86G/Q94H/R138H/R169H/T345S); test: T2 stabilization/HLA-A*02 binding assay (flow cytometry of surface HLA-A2 on peptide-pulsed T2 cells); conditions: peptide-pulsed TAP-deficient T2 cells, FIG. 1
T1 construct: Levels of surface HLA-A2 were measured by staining peptide-pulsed T2 cells with a fluorescent-labeled antibody to HLA-A2; endogenous in cells; host or cells: T2 cells (TAP-deficient)

[4] = IVS with BKVp44, healthy HLA-A2 donors
[5] = healthy HLA-A2 volunteers, summary of Table IV
[6] = IVS with JCVp100, healthy HLA-A2 donors
[7] = kidney transplant patient KTx#02 PBMC, two weeks with peptide and IL-2, percentage of CD8+ lymphocytes, FIG. 12

With “AITEVECFL (Polyomavirus hominis 1) [BK44]” the “IFN-γ secretion by CD8+ cells on peptide stimulation” value [1] was “induced the secretion of IFN-γ by CD8^+ cells”, the “BOTH (tetBKVp44 and tetJCVp36)” value ([2]; IVS with BKVp44, double tetramer labeling) was 1.79 and 0.02 and 5.7 and 0 (8×) and 0.17 and 13.2 and 2.63 and 3.38 and 0.1 and 6.1 and the “% tetBKVp44” value [2, 4] was 1.89% and 0% (5×) and 6.2% and 0.33% and 0.13% and 14.7% and 3.14% and 3.78% and 0.1% and 0.07% and 6.7% and 0.01% and 0.63%. The “% tetJCVp36” value [2, 4] was 1.72% and 0.01% and 6.6% and 0% (4×) and 0.7% and 0.08% and 0.04% and 15% and 3.07% and 3.65% and 0.1% and 0.07% and 6.2% and 0.05%, the “individuals with cells positively stained by the BK44 tetramer reagent after in vitro stimulation” value [2, 5] was 8 of 17 and the “individuals with cells positively stained by the JC36 tetramer reagent after in vitro stimulation” value [2, 5] was 8 of 17. The “recognition by transgenic murine CTL expanded with BK44” value [3] was “recognized”.
In the case of ILKEPVNGV [control HIV peptide], the “cells producing IFN-γ in response to peptide” value [1] is reported as 1.94% and 3.2% and the “proportion of cells responding with IFN-γ production” value [1] is reported as 0.35%.
ILMWEAVTL [JC100] was tested, and the “cells producing IFN-γ in response to peptide” value [1] was 17.29% and 22.2%, the “BOTH (tetBKVp108 and tetJCVp100)” value ([2]; IVS with JCVp100, double tetramer labeling) was 0 (6×) and 0.26 and 5.17 and 0.04 and 4.3 and 0.9 and the “% tetBKVp108” value [2, 6] was 0.04% (2×) and 0.05% and 0% (9×) and 0.16% and 0.06% and 0.48% and 4.59% and 0.13% and 5.1% and 0.03% and 0.8%. The “% tetJCVp100” value [2, 6] was 0.02% and 0% (11×) and 0.28% and 0.59% and 3.5% and 0.09% and 1.36% and 5.1% and 0.08% and 1.05%, the “individuals positive for staining with the BK108 tetramer reagent after in vitro stimulation” value [2, 5] was 5 of 20 and the “tetramer reagent binding cells that bound both the BKV and JVC tetramer reagents” value ([2]; kidney transplant patient KTx#02 PBMC after in vitro stimulation, FIG. 13) was 63%. For the same sequence, the “cells binding the BKV tetramer reagent after in vitro stimulation” value [2, 7] was 4.4%, the “cells binding the JVC tetramer reagent after in vitro stimulation” value [2, 7] was 3.7% and the “recognition by transgenic murine CTL expanded with BK108” value [3] was “recognized”.
In the case of “LLIKGGVEV (Polyomavirus hominis 1) [BK27b]”, the “HLA-A2 binding (increase in relative fluorescence intensity on T2 cells)” value (HLA-A*02) is reported as “highest binding function”.
With LLMWEAVTV [BK108] the “result of cytotoxicity and ICC assays” value [3] was “positive results”.
For NLLMWEAVTV [BK107], the “result of cytotoxicity and ICC assays” value [3] was “positive results”.
With SITEVECFL [JC36] the “recognition by transgenic murine CTL expanded with BK44” value [3] was “recognized”.
